Measured values reported in the NIST ThermoML archive (doi:10.1021/je0495785).

How the values were obtained:
[1] = molar enthalpy of vaporization or sublimation; details: Liquid, DSC
[2] = molar heat capacity at constant pressure; details: 101.33 kPa, Small sample (50 mg) DSC
[3] = for Normal melting temperature: Crystal, DTA; for Normal boiling temperature: Liquid, not specified, probably DSC
[4] = Molar enthalpy of transition or fusion; details: Crystal; DSC

Cc1cccc(N(c2cccc(C)c2)c2cccc(C)c2)c1 [3-methyl-N,N-bis(3-methylphenyl)benzenamine]
Details	molar enthalpy [kcal/mol]
[1], 567.99 K	8.98

[2]
Details	molar heat capacity at constant pressure [J/K/mol]
240 K, Crystal	1455.4
245 K, Crystal	1383
250 K, Crystal	1322.8
255 K, Crystal	1274.6
260 K, Crystal	1238.6
265 K, Crystal	1214.8
270 K, Crystal	1203
275 K, Crystal	1203.4
280 K, Crystal	1216
285 K, Crystal	1240.6
290 K, Crystal	1277.4
295 K, Crystal	1326.3
300 K, Crystal	1387.4
306 K, Crystal	1476.7
336 K, Liquid	1250.8
341 K, Liquid	1249.7
346 K, Liquid	1249.5
351 K, Liquid	1250.1
356 K, Liquid	1251.5
361 K, Liquid	1253.8
366 K, Liquid	1257
371 K, Liquid	1261
376 K, Liquid	1265.8
381 K, Liquid	1271.5

Details	Molar enthalpy of transition or fusion [kcal/mol]	Normal boiling temperature [°C]	Normal melting temperature [°C]
[3]	–	294.84	39.81
[4]	3.12	–	–

Cc1ccc(N(c2ccc(C)cc2)c2cccc(C)c2)cc1 [3-methyl-N,N-bis(4-methylphenyl)benzenamine]
Details	molar enthalpy [kcal/mol]
[1], 589.09 K	18.1

[2]
Details	molar heat capacity at constant pressure [J/K/mol]
298 K, Crystal	417.01
303 K, Crystal	369.25
308 K, Crystal	351.52
313 K, Crystal	363.76
318 K, Crystal	406.01
323 K, Crystal	478.26
325 K, Crystal	515.56
339 K, Liquid	442.71
343 K, Liquid	440.93
348 K, Liquid	438.63
353 K, Liquid	436.24
358 K, Liquid	433.8
363 K, Liquid	431.3
368 K, Liquid	428.71
373 K, Liquid	426.07
378 K, Liquid	423.34
383 K, Liquid	420.55
388 K, Liquid	417.68
393 K, Liquid	414.74

Details	Molar enthalpy of transition or fusion [kcal/mol]	Normal boiling temperature [°C]	Normal melting temperature [°C]
[3]	–	315.94	56.70
[4]	5.19	–	–

Cc1ccc(N(c2cccc(C)c2)c2cccc(C)c2)cc1 [3-methyl-N-(3-methylphenyl)-N-(4-methylphenyl)benzenamine]
Details	molar enthalpy [kcal/mol]
[1], 547.3 K	16.6

molar heat capacity at constant pressure [J/K/mol], [2]
Details	330 K	335 K	340 K	365 K	369 K	372 K
Crystal	114.18	117.34	98.12	–	–	–
Liquid	–	–	–	143.7	141.06	137.86

Details	Molar enthalpy of transition or fusion [kcal/mol]	Normal boiling temperature [°C]	Normal melting temperature [°C]
[3]	–	274.1	89.50
[4]	6.31	–	–

Cc1ccc(N(c2ccc(C)cc2)c2ccc(C)cc2)cc1 [tri-tolylamine]
Details	molar enthalpy [kcal/mol]
[1], 574.04 K	17.3

Details	Molar enthalpy of transition or fusion [kcal/mol]	Normal boiling temperature [°C]	Normal melting temperature [°C]
[3]	–	300.89	115.59
[4]	4.77	–	–
